Source: EP4722219A1 (Gan & Lee Pharmaceuticals Co., Ltd., priority 2023, dated 2024)

Assays:
Type in all cases: cell-based
[1] = system: VCaP cells; assay: Inhibition of VCaP cell proliferation (WST-8); conditions: 168 hours
Summary of the method: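 Proliferation was read on day 9 as WST-8 absorbance at 450 nm after VCaP cells (15,000/well, DMEM/10% FBS, 37°C) were exposed from day 2 to compound at 9 points, 5-fold serial dilution, top final concentration 10 µM.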

[2] = target: T1, AR protein (Homo sapiens, UniProt P10275, T878A); assay: AR protein degradation in LNCaP cells (Western blot); conditions: 8 hours; for percent AR protein degradation at a fixed concentration at 0.01 µM / Degradation of AR protein in LNCaP cells, 10 nM (%): 10 nM; for percent AR protein degradation at a fixed concentration at 0.1 µM / Degradation of AR protein in LNCaP cells, 100 nM (%): 100 nM
T1 construct: host or cells: LNCaP FGC
T1 sequence (P10275 1-920 T878A): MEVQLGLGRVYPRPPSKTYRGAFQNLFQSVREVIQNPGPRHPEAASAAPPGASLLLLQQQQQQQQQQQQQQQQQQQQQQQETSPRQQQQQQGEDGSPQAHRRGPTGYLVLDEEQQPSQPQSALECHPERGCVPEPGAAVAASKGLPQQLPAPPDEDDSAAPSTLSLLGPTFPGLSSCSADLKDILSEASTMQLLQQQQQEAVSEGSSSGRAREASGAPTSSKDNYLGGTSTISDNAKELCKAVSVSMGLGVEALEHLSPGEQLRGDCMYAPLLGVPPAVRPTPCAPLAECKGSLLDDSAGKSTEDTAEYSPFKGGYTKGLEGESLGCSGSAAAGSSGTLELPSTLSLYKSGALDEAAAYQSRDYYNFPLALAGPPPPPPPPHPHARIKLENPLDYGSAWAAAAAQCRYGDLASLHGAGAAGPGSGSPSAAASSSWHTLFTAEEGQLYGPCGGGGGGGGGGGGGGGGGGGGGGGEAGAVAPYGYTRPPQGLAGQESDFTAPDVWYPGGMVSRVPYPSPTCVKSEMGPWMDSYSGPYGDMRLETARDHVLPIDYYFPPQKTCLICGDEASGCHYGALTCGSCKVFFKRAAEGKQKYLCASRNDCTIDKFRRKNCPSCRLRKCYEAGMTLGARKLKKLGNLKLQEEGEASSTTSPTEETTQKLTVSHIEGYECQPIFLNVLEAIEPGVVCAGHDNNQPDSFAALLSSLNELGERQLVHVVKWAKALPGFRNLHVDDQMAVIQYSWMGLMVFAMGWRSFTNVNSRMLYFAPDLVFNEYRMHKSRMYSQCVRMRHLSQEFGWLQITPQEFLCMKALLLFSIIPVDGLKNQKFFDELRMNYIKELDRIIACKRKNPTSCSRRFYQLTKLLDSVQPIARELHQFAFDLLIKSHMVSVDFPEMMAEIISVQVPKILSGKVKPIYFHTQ
Summary of the method: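 AR degradation rate derived from Western blot band densitometry, referenced to GAPDH, using total lysates of LNCaP cells treated 8 h with compound versus solvent control. Detection used infrared dual-color imaging after SDS-PAGE and PVDF transfer.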

[3] = system: LNCaP cells; assay: Inhibition of LNCaP cell proliferation (WST-8); conditions: LNCaP FGC cells, 96 hours
Summary of the method: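 WST-8 absorbance at 450 nm measured proliferation after 96 h of compound exposure at 37 °C, 5% CO2. Dosing used nine 5-fold dilutions from a 10 µM top final concentration, applied to cells cultured overnight beforehand.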

Compound	IC50 ([1]; Homo sapiens)	percent AR protein degradation at a fixed concentration at 0.01 µM [2]	percent AR protein degradation at a fixed concentration at 0.1 µM [2]	IC50 ([3]; Homo sapiens)	Degradation of AR protein in LNCaP cells, 10 nM (%) [2]	Degradation of AR protein in LNCaP cells, 100 nM (%) [2]	IC50 [1]	IC50 [3]
Cn1c(=O)n(C2CCC(=O)NC2=O)c2ccc3c(c21)OCC31CCN(C2CCN(c3ccc(C(=O)N[C@H]4CC[C@H](Oc5ccc(C#N)c(Cl)c5)CC4)nn3)CC2)CC1 (some centres unmarked) [A-P-23]	0.046 nM	37%	14%	22.4 µM	–	–	–	–
COc1cc(O[C@H]2C(C)(C)[C@H](NC(=O)c3ccc(N4CCC(CN5CCN6c7ccc(N[C@H]8CCC(=O)NC8=O)cc7OC[C@@H]6C5)CC4)cc3)C2(C)C)ccc1C#N [A-P-100]	4700 nM	–	–	0.38 µM	1%	48%	–	–
COc1cc(O[C@H]2C(C)(C)[C@H](NC(=O)c3ccc(N4CCC(CN5CC6(CCC7(CC6)COc6c7ccc7c6CN(C6CCC(=O)NC6=O)C7=O)C5)CC4)cc3)C2(C)C)ccc1C#N (relative stereo) [A-P-3]	0.017 nM	–	–	3.43 µM	64%	65%	–	–
COc1cc(O[C@H]2C(C)(C)[C@H](NC(=O)c3ccc(N4CCC(CN5CCN6c7ccc(C(=O)N[C@H]8CCC(=O)NC8=O)cc7OC[C@@H]6C5)CC4)cc3)C2(C)C)ccc1C#N [A-P-67]	170 nM	–	–	7.22 µM	55%	85%	–	–
COc1cc(O[C@H]2CC[C@H](NC(=O)c3ccc(N4CCC(CN5CCC6(CC5)COc5cc7c(cc56)n(C)c(=O)n7C5CCC(=O)NC5=O)CC4)nn3)CC2)ccc1C#N (relative stereo) [A-P-17]	72 nM	–	–	91.2 µM	1%	-18%	–	–
COc1cc(O[C@H]2C(C)(C)[C@H](NC(=O)c3ccc(N4CCC(CN5CCC6(CCc7cc(F)c(C(=O)N[C@H]8CCC(=O)NC8=O)cc7O6)CC5)(OC)CC4)cc3)C2(C)C)ccc1C#N [A-P-40]	> 10000 nM	–	–	6.56 µM	26%	46%	–	–
(R)-3-((1-(4-(((S)-2-(3-chloro-4-cyanophenyl)-3-methyl-2,8-diazaspiro[4.5]decan-8-yl)phenyl)piperidin-4-yl)methyl)-N-(((S)-2,6-dioxopiperidin-3-yl)-1,2,3,4,4a,5-hexahydrobenzo[b]pyrazi no[1,2-d][1,4]oxazine-8-carboxamide [A-P-58]	–	–	–	–	63%	87%	1830 nM	0.51 µM
C[C@H]1CC2(CCN(c3ccc(C(=O)N4CCC(CN5CCN6c7ccc(C(=O)N[C@H]8CCC(=O)NC8=O)cc7OC[C@H]6C5)CC4)cc3)CC2)CN1c1ccc(C#N)c(Cl)c1 [A-P-68]	4.5 nM	–	–	0.97 µM	51%	84%	–	–
COc1cc(O[C@H]2C(C)(C)[C@H](NC(=O)c3ccc(N4CCC5(CC4)CC(N4CCC6(CC4)COc4cc7c(cc46)n(C)c(=O)n7C4CCC(=O)NC4=O)C5)cc3)C2(C)C)ccc1C#N (relative stereo) [A-P-21]	2 nM	–	–	8.23 µM	52%	55%	–	–
COc1cc(O[C@H]2C(C)(C)[C@H](NC(=O)c3ccc(N4CCC(CN5CCC6(CCc7cc(C(=O)N[C@H]8CCC(=O)NC8=O)c(F)cc7O6)CC5)(OC)CC4)cc3)C2(C)C)ccc1C#N [A-P-36]	1660 nM	–	–	0.82 µM	52%	70%	–	–
Cn1c(=O)n(C2CCC(=O)NC2=O)c2cc3c(cc21)C1(CCN(CC2CCN(c4ccc(C(=O)N[C@H]5CC[C@H](Oc6ccc(C#N)c(Cl)c6)CC5)nn4)CC2)CC1)CO3 (some centres unmarked) [A-P-10]	6 nM	47%	5%	137 µM	–	–	–	–
